Active and inactive are the calls of the source. How the calls were made is not given here.
System: L. donovani-infected THP-1 macrophages, intracellular amastigote imaging
Experiment: antileishmanial activity in infected THP-1 macrophages – imaging, THP-1 host macrophages, host toxicity (AID 1159564)
[1] = measured here: THP-1 host cell toxicity
[2] = measured here: amastigotes per macrophage

Compound | IC50 | IC50 [1] | IC50 [2]
COc1ccc2ncc(=O)n(CCN3CCOC(CNCc4ccc(C(F)(F)F)cc4F)C3)c2n1 (stereo unspecified) | > 50 µM (inactive) | > 50 µM | > 50 µM
COc1ccc(C(C)(C)C)cc1S(=O)(=O)n1ccnc1 | > 50 µM (inactive) | > 50 µM | 25 µM
NC(=O)c1cc(NC(=O)c2ccccc2COc2ccccc2)ccc1Cl | 3.2 µM | 16 µM | 1.6 µM
O=c1[nH]c(C=Cc2cccc(OCCOc3ccccc3)c2)nc(O)c1[N+](=O)[O-] | > 50 µM (inactive) | > 50 µM | > 50 µM
CN(C)Cc1cccc(Nc2nccc(-c3ccc(NCCN)c(C#N)c3)n2)c1 | 1.3 µM | 6.3 µM | 0.5 µM
Cc1cc(Nc2cc(C3CC3)[nH]n2)nc(N2CCC[C@H]2C(N)=O)n1 | 0.2 µM | 0.13 µM | 0.079 µM
Cc1cnc(Nc2cc(Cc3ccccc3)nc(NC3CCC(O)CC3)n2)s1 (stereo unspecified) | 0.04 µM | 0.025 µM | 0.032 µM
CN(C)Cc1ccc(-c2ccc(S(=O)(=O)NCC3CCCO3)c(F)c2)cc1 (stereo unspecified) | > 63 µM (inactive) | 63 µM | > 63 µM
COc1cc(C(C)C)c(S(C)(=O)=O)cc1C(=O)N1CCN(c2ccccc2Cl)CC1 | 16 µM | 16 µM | 13 µM
CCCNC(=O)Nc1cccc(-c2nc3ncccc3o2)c1 | 13 µM | 20 µM | 16 µM
CC(=O)Nc1ccc(Nc2nccc(-c3cnn4ncccc34)n2)cc1C(F)(F)F | 0.025 µM | 0.01 µM | 0.016 µM
CN(C)S(=O)(=O)c1cccc(C(=O)Nc2nc(-c3ccccn3)cs2)c1 | 6.3 µM | 7.9 µM | 2.5 µM
N#Cc1cccc(CN2CCC(N(Cc3cccnc3)C(=O)c3cc(F)c(F)cc3F)CC2)c1 | > 50 µM (inactive) | > 50 µM | 13 µM
Fc1ccccc1N1C[C@H]2CCN(c3cccnc3)C[C@H]2C1 | > 50 µM (inactive) | > 50 µM | –
COc1ccc(-c2cnc(NC(=O)c3cc(-c4ccccn4)n[nH]3)n2C)cc1 | 1 µM | > 50 µM | 0.79 µM
Cc1ccc2sc(NC(=O)Cn3cnc([N+](=O)[O-])n3)nc2c1 | > 50 µM (inactive) | > 50 µM | > 50 µM
O=C(CN(Cc1ccccn1)Cc1ccccn1)NCc1ccc2c(c1)OCO2 | 7.9 µM | > 79 µM | 6.3 µM
CC(C)c1sc(Cl)nc1C(=O)NCCc1nc(C(=O)Nc2ccc3c(c2)OCO3)cs1 | 5 µM | > 50 µM | 2.5 µM
COc1ccccc1CNc1cc(C2CC2)nc(-c2nccn2C)n1 | 0.5 µM | 16 µM | 0.4 µM
Cc1ccc(S(C)(=O)=O)cc1Nc1nccc(-c2sc(N)nc2-c2ccccc2)n1 | 5 µM | 20 µM | 2.5 µM
CN(C)CCN(C)Cc1ccc(F)cc1NS(=O)(=O)c1ccc(Cl)c(Cl)c1 | 7.9 µM | 32 µM | 2.5 µM
Cc1ccc(C)c(-n2nnnc2Sc2nc([N+](=O)[O-])nn2C)c1 | > 50 µM (inactive) | > 50 µM | > 50 µM
C[C@@H](Oc1cc(-n2cnc3ccc(C(O)CO)cc32)sc1C(N)=O)c1ccccc1C(F)(F)F (stereo partly specified) | 20 µM | 16 µM | 13 µM
COc1ccc(C(=O)Nc2c(C)nn(COc3cccc(C(F)(F)F)c3)c2C)cc1 | > 50 µM (inactive) | 32 µM | > 50 µM
O=C1CCCCCC1(Cc1cnc[nH]1)c1ccc(Cl)cc1Cl (stereo unspecified) | > 50 µM (inactive) | > 50 µM | 6.3 µM
Cc1cccc(Nc2nc(-c3ccccn3)cs2)n1 | 3.2 µM | > 50 µM | 2 µM
Cc1nnnn1-c1cccc(C(=O)N2CCC[C@@]3(C)c4ncncc4CCC23)c1 (stereo partly specified) | > 50 µM (inactive) | > 50 µM | 6.3 µM
N#Cc1cc(-c2ccnc(Nc3cccc(CN4CCOCC4)c3)n2)ccc1NCCN | 1.6 µM | 7.9 µM | 0.79 µM
CCN(CC)c1ncc(C(=O)c2ccc([N+](=O)[O-])o2)s1 | 10 µM | 6.3 µM | 10 µM
